Key:
[1] = Gelation test (tube inversion); type: physicochemical; settings: aqueous dispersion 1.5 wt % in Milli-Q water, heated until dissolution (45° C.), cooled to room temperature
Protocol: The aqueous dispersions (Milli-Q water, 18 MΩ·cm^−1) containing 1.5 wt % of compounds 5 and 6 obtained in examples 1 and 2 were heated until dissolution (at 45° C.) and gradually allowed to cool to room temperature unless otherwise stated.

[2] = system: human mesenchymal stem cells (ASCs); assay: Cytotoxicity by MTT test (cell metabolic activity); type: cell-based
Protocol: (§1) Mesenchymal stem cells were isolated from human adipose tissue. Human subcutaneous fat was obtained from healthy patients aged 20 to 80 years old who underwent hip surgery in Bordeaux Pellegrin CHU (Bordeaux, France). Fat mass was separated from other tissues, washed with sterilized PBS, finely cut and incubated with 0.1% (w/v) collagenase type I (Worthington, Lakewood, N.J., USA) at 37° C. with gentle agitation for 1 h 30. After filtration and centrifugation, the top liquid layer was removed and the remaining Stromal Vascular Fraction (SVF) was treated for 10 min with ELB (Erythocyte Lysis Buffer; 155 mM NH4Cl (Sigma-Aldrich, St. Louis, Mo., USA), 5.7 mM K2HPO4, 7.4 mM K2HPO4-3H2O, 0.1 mm EDTA (all Sigma-Aldrich)), and then centrifuged. […]
The cytotoxicity of compound 6 was evaluated by the measurement of the cell metabolic activity (MTT assay). […]
MTT assay was performed after 72 h of incubation. […] Results were expressed as a percentage of the metabolic activity of the positive control. Absorbance was measured at a wavelength of 570 nm with background subtraction at 630 nm.
The cytotoxicity of compound 6 was determined by MTT test to measure the metabolic activity of human mesenchymal stem cells (ASCs) 48 hours after incubation with increasing concentrations of compound 6. […]

[3] = system: rat osteoblastic cells (A) or human ASCs (B); assay: Cytocompatibility by Alamar Blue metabolism in cells grown in compound 6-based gels; type: cell-based; settings: compound 6-based gel 3% (w/v)
Protocol: as §1
Cell viability was also evaluated by using the Alamar Blue metabolic activity assay. […] After this time, the fluorescence was measured at wavelengths excitation 530 nm and emission 590 nm. Triplicate samples were analyzed for each experiment. […]
Cytocompatibility was determined by monitoring alamar blue metabolism in rat osteoblastic cells (A) or human ASCs (B) grown in compound 6-based gels. […]

hASCs or D1 = assay: Live/Dead staining (calcein-AM, ethidium homodimer) of cells seeded within gels; type: cell-based; settings: cells seeded within gel 3% (w/v), at 2 weeks
Protocol: For all in vitro assays, the hydrogel obtained from compound 6 was prepared at a concentration of 3% (w/v). The compound 6 powder was solubilized in PBS 1× under agitation (900 rpm) at 25° C. during 45 minutes. Then, when the gel was formed, it was left at room temperature, without agitation, during 3 to 4 hours. To allow cell seeding, the gel was heated during 30 minutes at 55° C. Once the liquid solution was obtained, it was rapidly cooled down to 37° C. and thoroughly mixed with 10 μL cell suspension at a concentration of 1 million cells per mL of gel. Finally, the cellularized hydrogel was maintained under agitation (600 rpm), at 25° C. during 45 minutes. After this period, medium was been added (250 μL/tube) and tubes were incubated at controlled atmosphere (5% CO2, 37° C.)
[…] Cells seeded within gels were incubated for 1 h at 37° C. in Hank's medium supplemented with 1.25 μL calcein-AM and 5 μL EthD-1.

[4] = Sol-gel transition temperature (Tgel) by rheology; type: physicochemical; settings: hydrogel 3% w/v, heated from 25 to 60° C. (3° C./min), oscillatory stress 5 Pa, 1 Hz
Protocol: The determination of gel-sol transition temperature can also be determinated by rheology. The hydrogel (3% product 6 of example 2, w/v) was heated progressively from 25 to 60° C. (3° C./min). The oscillatory stress applied was set to 5 Pa at a constant frequency (1 Hz). The sol-gel transition point was taken as the temperature at which the gel became liquid. This melting temperature is reached at the intersection of the viscoelastic moduli (G′ and G″). This value is of 46° C. which is compatible with the cell culture at the gel state (37° C.).

SMILES	gel formation (solid aggregate mass stable to inversion of the container) [1]	concentrations up to which the compound is non toxic ([2]; MTT, human ASCs, tested 5 μM to 5 mM, value printed as approximate)	cytotoxicity (result in words) ([2]; summary of example 12)	cytocompatibility when used as cell culture medium [3]	Live/dead staining result (hASCs or D1)	sol-gel transition temperature (Tgel), intersection of G′ and G″ [4]
Cc1cn([C@H]2C[C@H](O)[C@@H](Cn3cc(COCCCCCCCCCCCCO)nn3)O2)c(=O)n(Cc2cn([C@@H]3O[C@H](CO)[C@@H](O)[C@H](O)[C@H]3O)nn2)c1=O [compound 5, 5′-[4-(12-hydroxydodecanyloxy)methyl)-1H-1,2,3-triazol-1-yl]-5′-deoxy-N3-(1-((β-D-glucopyranoside)-1H-1,2,3-triazol-4-yl)methyl thymidine]	form gels	–	–	–	–	–
Cc1cn([C@H]2C[C@H](O)[C@@H](Cn3cc(COCCCCCCCCCCCCOCc4cn(C[C@H]5O[C@@H](n6cc(C)c(=O)n(Cc7cn([C@@H]8O[C@H](CO)[C@@H](O)[C@H](O)[C@H]8O)nn7)c6=O)C[C@@H]5O)nn4)nn3)O2)c(=O)n(Cc2cn([C@@H]3O[C@H](CO)[C@@H](O)[C@H](O)[C@H]3O)nn2)c1=O [compound 6]	form gels	≤ 1000 µM	not cytotoxic	god cytocompatibility	vast majority of green (living) cells	46 °C

From patent publication US10633409B2, “Bola-amphiphilic compounds and their uses for biomedical applications” (UNIVERSITE DE BORDEAUX, priority 2014, dated 2020)
